Experimental data as given in patent US20210186989A1, “ENHANCED TRAINED IMMUNITY IN MYELOID CELLS BY SHIP-1 INHIBITION” (CENTRO NACIONAL DE INVESTIGACIONES CARDIOVASCULARES CARLOS …, priority 2018, published 2021).

What was measured:
[1] = tested on: mouse bone marrow-derived macrophages (BMDMs); experiment: Trained immunity in vitro model, TNFα by ELISA after LPS; format: cell-based; conditions: for boost of trained immunity (TNF alpha) in absence of SHIP-1: LysMΔSHIP-1 BMDMs, beta-glucan-trained, 30 min pre-incubation; for TNF-alpha overproduction in trained LysMΔSHIP-1 BMDMs: 30 min pre-incubation before beta-glucan training
Procedure: BMDMs (10^5) were plated in 96-well plates (200-μl final volume, Corning) and stimulated with R10 or 100 μg/ml β-glucan (whole glucan particles, WGP, Biothera, Eagan, Minn.) for 24h. Then, cells were washed and rested 3 days in culture medium. At day 4, BMDMs were washed again and primed with 25 ng/ml IFNγ (BD Biosciences, San Jose, Calif.) for 24h. On day 5, a final wash was performed and cells were stimulated with R10 or 1 μg/ml Escherichia coli LPS (EK, Invivogen, San Diego, Calif.). After 24h, supernatants were collected for TNFα measurement by ELISA (Opteia ELISA kit, BD Biosciences).
When required, BMDMs were pre-incubated for 30 minutes prior to β-glucan training with 1.5 μM Syk inhibitor (R406, Hozel diagnostic, Cologne, Germany), […] Raf-1 inhibitor (GW5074, Sigma), 500 μM MTA (5′-Deoxy-5′-(methylthio)adenosine, Sigma), 6 μM Pargyline (Sigma) or SHIP-1 inhibitor (SHIPi, 3-α-aminocholestane, 3AC, Calbiochem, Darmstad, Germany) at the indicated doses. Inhibitors were also added in the first wash-out, before the resting period.
(§1) For TNFα normalization, the fold of cells in each condition was calculated as follows: (Live cell number in condition X)/(live cell number in non-trained WT condition). In case of SHIP-1 inhibition experiments, non-treated cells were used as reference. Thus, TNFα per cell number was normalized as (absolute TNFα value)/(fold of cells).

mouse BMDMs = experiment: BMDM viability in the training scheme (FACS, Hoechst 33258 exclusion); format: cell-based
Procedure: To assess receptor expression and cell viability, 6·10^5 BMDMs were plated in non-treated 24-well plates (1200-μl final volume, Corning) and followed the training scheme described above. Dectin-1 expression was evaluated at day 0 prior to β-glucan addition. Cell viability and TLR4 expression were assessed on day 5 before LPS stimulation. At indicated times, cells were collected in PBS/EDTA and stained on ice-cold FACS Buffer (PBS/EDTA plus 3% FBS) for flow cytometry analysis.
Samples were stained with the appropriate antibody cocktails in ice-cold FACS Buffer at 4° C. for 15 minutes. Antibodies included mouse PE-anti-TLR4 (BioLegend, San Diego, Calif.) and APC-anti-Dectin-1 (Bio-Rad). Dead cells were excluded by Hoechst 33258 (Invitrogen, Carlsbad, Calif.) incorporation. Purified anti-FcγRIII/II (2.4G2, TONBO Bioscience, San Diego, Calif.) was used to block murine Fc-receptors at 4° C. for 10 minutes in all the stainings. Events were acquired using FACSCanto 3L (BD Biosciences). Data were analyzed with FlowJo software (Tree Star, Ashland, Oreg.).

[2] = tested on: human peripheral blood mononuclear cells (PBMCs); experiment: Trained immunity in vitro model in human PBMCs, TNFα by ELISA after LPS; format: cell-based; conditions: beta-glucan-trained human PBMCs, 10 μM 3AC, LPS stimulation
Procedure: Total PBMCs (5·10^5) were plated in 96-well plates (200-μl final volume) and stimulated with 100 μg/ml β-glucan for 24h. Then, cells were washed and rested 6 days in culture medium. At day 7, PBMCs were stimulated with 1 μg/ml LPS (EK). After 24h, supernatants were collected for TNFα measurement by ELISA (Human TNFα DuoSet, R&D Systems, Abingdon, UK). When required, PBMCs were pre-incubated for 30 minutes prior to β-glucan training with 10 μM 3AC. Inhibitor was also added together with the first wash-out, before the resting period.
as §1

human PBMCs = experiment: Viability of cells in human PBMC training scheme; format: cell-based; conditions: non-trained cells in human PBMC experiment (not shown)
Procedure: To assess cell viability, 3·10^6 total PBMCs were plated in 24-well plates (1200-μl final volume, Corning) and followed the training scheme described here. At day 7, prior to LPS stimulation, cells were collected in PBS/EDTA and stained on ice-cold FACS Buffer for flow cytometry analysis.

Candida albicans SC5314 = experiment: In vivo training followed by lethal systemic Candida albicans infection, survival; parameters: species or system mouse; conditions: 0.11 mg 3AC i.p. days -8 and -7, lethal 2·10^6 C. albicans i.v.
Procedure: Mice were trained with either two intraperitoneal (i.p.) injections of 1 mg β-glucan particles on days −7 and −4 or 2·10^4 Candida albicans intravenously (i.v) on day −7. Sterile PBS was used as control. One week later, mice were challenged with 5 μg E. coli LPS (serotype 055:B5, Sigma) i.p. and blood was collected 60 min later to assess the serum TNFα (Mouse TNFα DuoSet, R&D Systems). Alternatively, mice were lethally infected with 2·10^6 C. albicans i.v. and monitored daily for weight, general health and survival, following the institutional guidance. When required mice were i.p. treated with 0.11 mg 3AC on days −8 and −7.3AC was diluted in PBS 0.3% hydroxypropylcellulose (Sigma), used as control.

SHIP-1 = target: T1, SHIP-1 (Homo sapiens, UniProt Q92835); conditions: SHIP-1 inhibitor 3AC; value given in parentheses, no test described; cited from earlier work
T1 sequence (Q92835 1-1189): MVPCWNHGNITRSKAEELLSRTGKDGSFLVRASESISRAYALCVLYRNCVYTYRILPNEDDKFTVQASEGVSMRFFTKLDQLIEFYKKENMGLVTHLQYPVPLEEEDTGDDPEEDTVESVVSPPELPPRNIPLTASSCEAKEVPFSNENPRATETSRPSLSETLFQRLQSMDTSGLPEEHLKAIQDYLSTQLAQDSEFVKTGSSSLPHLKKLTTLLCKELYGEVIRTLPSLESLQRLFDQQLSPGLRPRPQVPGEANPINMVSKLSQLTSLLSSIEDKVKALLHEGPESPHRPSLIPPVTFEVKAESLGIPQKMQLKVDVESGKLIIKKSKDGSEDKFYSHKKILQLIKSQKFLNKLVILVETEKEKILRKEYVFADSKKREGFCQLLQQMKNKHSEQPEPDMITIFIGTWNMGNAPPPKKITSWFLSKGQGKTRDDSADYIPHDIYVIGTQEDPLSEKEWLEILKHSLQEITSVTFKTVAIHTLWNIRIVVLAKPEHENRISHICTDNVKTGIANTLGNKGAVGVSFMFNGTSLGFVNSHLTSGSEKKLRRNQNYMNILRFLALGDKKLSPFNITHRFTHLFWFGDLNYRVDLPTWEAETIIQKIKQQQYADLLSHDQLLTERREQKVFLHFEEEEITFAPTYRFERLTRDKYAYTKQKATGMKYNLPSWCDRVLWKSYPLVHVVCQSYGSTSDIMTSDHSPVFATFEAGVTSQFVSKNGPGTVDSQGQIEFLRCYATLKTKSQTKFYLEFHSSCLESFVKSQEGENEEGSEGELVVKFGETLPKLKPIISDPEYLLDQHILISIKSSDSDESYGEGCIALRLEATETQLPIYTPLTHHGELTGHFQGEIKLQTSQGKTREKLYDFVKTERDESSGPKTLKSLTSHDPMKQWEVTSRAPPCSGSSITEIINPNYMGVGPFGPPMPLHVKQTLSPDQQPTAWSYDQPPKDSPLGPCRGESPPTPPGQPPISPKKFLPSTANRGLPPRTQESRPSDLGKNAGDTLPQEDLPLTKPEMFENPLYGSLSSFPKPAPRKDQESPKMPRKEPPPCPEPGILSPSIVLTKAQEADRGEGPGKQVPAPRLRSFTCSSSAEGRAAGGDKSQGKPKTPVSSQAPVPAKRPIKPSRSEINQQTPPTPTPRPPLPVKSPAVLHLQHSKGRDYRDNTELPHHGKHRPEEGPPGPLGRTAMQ

Compound: CC(C)CCC[C@@H](C)[C@H]1CC[C@H]2[C@@H]3CC[C@H]4C[C@H](N)CC[C@]4(C)[C@H]3CC[C@]12C [3AC, 3α-aminocholestane]
- TNF-alpha production in supernatants ([1]; beta-glucan-trained BMDMs, different doses of 3AC 30 min before training and after wash-out, LPS challenge): boosted TNF-alpha production in a dose-dependent manner
- survival of non-trained BMDMs (mouse BMDMs; 5 day-long in vitro culture in the presence of 3AC): did not survive
- survival of trained BMDMs (mouse BMDMs; beta-glucan-trained, in the presence of 3AC): did not affect survival
- TNF-alpha production in supernatants [2]: boosted TNF-alpha production
- toxicity for non-trained cells (human PBMCs): toxic
- survival of non-trained mice (Candida albicans SC5314): did not impact on the survival
- survival of Candida-trained mice (Candida albicans SC5314; training 2·10^4 C. albicans i.v. day -7): improved the survival
- IC50 (SHIP-1): 13.5 µM

Compound: O=C1Nc2ccc(I)cc2/C1=C/c1cc(Br)c(O)c(Br)c1 [GW5074]
- boost of trained immunity (TNF alpha) in absence of SHIP-1 [1]: did not affect this process

Compound: CSC[C@H]1O[C@@H](n2cnc3c(N)ncnc32)[C@H](O)[C@@H]1O [MTA, 5′-Deoxy-5′-(methylthio)adenosine]
- TNF-alpha overproduction in trained LysMΔSHIP-1 BMDMs ([1]; 500 μM): inhibited the increase in TNF-alpha

Compound: COc1cc(Nc2ncc(F)c(Nc3ccc4c(n3)NC(=O)C(C)(C)O4)n2)cc(OC)c1OC [R406]
- boost of trained immunity (TNF alpha) in absence of SHIP-1 ([1]; 1.5 μM): abolished the boost of trained immunity

Compound: C#CCN(C)Cc1ccccc1 [pargyline, Pargyline]
- TNF-alpha overproduction in trained LysMΔSHIP-1 BMDMs ([1]; 6 μM): had no effect
